Measurements: ChEMBL document CHEMBL4732045, “Amide Bond Bioisosteres: Strategies, Synthesis, and Successes” (J Med Chem, 2020)

Key:
Mus musculus [1] = experiment: Immunosuppressive activity in B6D2F1 mouse model of graft-versus-host disease assessed as mean survival days at 3 mg/kg, ip administered for day 1 to day 10 (day 6 omitted) and measured at day 60; type: functional; conditions: time 60 day
Mus musculus [2] = experiment: Immunosuppressive activity in B6D2F1 mouse model of graft-versus-host disease assessed as mean survival days at 1 mg/kg, ip administered for day 1 to day 10 (day 6 omitted) and measured at day 60; type: functional; conditions: time 60 day
Rattus norvegicus = experiment: Immunosuppressive activity in Lewis rat model of Heart Allotransplantation assessed as mean survival days at 6 mg/kg, ip administered for 10 days by Manntel-Haenszel test; type: functional; conditions: time 10 day
[3] = target: Delta-type opioid receptor (Mus musculus, UniProt P32300); experiment: Inhibition of [3H]-Deltorphin 2 binding to mouse delta opioid receptor expressed in rat GH3 cell membranes by Cheng-Prusoff analysis; design: species or system Cell membrane
Sequence of Delta-type opioid receptor (P32300 whole entry): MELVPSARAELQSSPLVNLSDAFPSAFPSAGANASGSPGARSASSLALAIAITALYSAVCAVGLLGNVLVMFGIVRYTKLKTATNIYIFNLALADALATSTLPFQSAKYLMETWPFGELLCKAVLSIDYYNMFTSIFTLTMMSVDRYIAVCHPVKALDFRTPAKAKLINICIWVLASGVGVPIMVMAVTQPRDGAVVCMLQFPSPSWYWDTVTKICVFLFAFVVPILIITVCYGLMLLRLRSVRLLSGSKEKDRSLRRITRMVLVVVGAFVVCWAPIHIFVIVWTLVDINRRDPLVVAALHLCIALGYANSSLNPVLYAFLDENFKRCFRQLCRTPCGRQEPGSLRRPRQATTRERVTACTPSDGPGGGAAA

CAKI-2 = experiment: Cytotoxicity against human Caki-2 cells incubated for 96 hrs by MTT assay; type: functional, cell-based; conditions: CAKI-2, 96 h
A549 = experiment: Cytotoxicity against human A549 cells incubated for 96 hrs by MTT assay; type: functional, cell-based; conditions: A549, 96 h
HeLa = experiment: Cytotoxicity against human HeLa cells incubated for 96 hrs by MTT assay; type: functional, cell-based
PC-3 [4] = experiment: Cytotoxicity activity against human PC-3 cells incubated for 96 hrs by MTT method; type: functional, cell-based; conditions: PC-3, 96 h
HL-60 [5] = experiment: Cytotoxicity activity against human HL-60 cells incubated for 96 hrs by MTT assay; type: functional, cell-based; conditions: HL-60, 96 h
[6] = Inhibition of ACAT in cholesterol-fed New Zealand rabbit intestional microsomes using [1-14C]oleoyl-CoA as substrate preincubated for 5 mins followed by substrate addition and measured after 5 mins by liquid scintillation counting method; design: species or system Oryctolagus cuniculus, Intestine, Microsome
[7] = target: D(2) dopamine receptor (Bos taurus) (UniProt P20288); experiment: Modulation of [3H]Spiroperidol/N-Propylnorapomorphine binding to dopamine D2 receptor in bovine striatal membranes incubated for 1 hr by Cheng-Prusoff analysis; type: cell membranes; conditions: Striatum, Membrane, filed as modulator
Sequence of D(2) dopamine receptor (Bos taurus) (P20288 whole entry): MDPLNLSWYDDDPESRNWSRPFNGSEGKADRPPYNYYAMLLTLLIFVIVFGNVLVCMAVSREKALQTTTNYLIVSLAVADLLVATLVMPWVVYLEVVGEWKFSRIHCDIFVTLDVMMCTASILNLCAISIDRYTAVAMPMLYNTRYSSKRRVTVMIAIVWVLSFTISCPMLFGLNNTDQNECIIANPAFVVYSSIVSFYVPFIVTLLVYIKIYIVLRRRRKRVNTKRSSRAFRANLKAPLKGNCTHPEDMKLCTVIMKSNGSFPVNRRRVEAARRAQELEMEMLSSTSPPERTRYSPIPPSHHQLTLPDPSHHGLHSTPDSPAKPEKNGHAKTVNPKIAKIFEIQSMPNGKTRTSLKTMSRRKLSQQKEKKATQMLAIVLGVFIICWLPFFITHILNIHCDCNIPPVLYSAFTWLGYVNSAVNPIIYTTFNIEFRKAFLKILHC

[8] = target: D(2) dopamine receptor (Bos taurus) (UniProt P20288); experiment: Modulation of [3H]Spiroperidol/N-Propylnorapomorphine binding to dopamine D2 receptor in bovine striatal membranes incubated for 1 hr in presence of Gpp(NH)p by Cheng-Prusoff analysis; type: cell membranes; conditions: Striatum, Membrane, filed as modulator
[9] = Inhibition of HIV2 protease; design: species or system Human immunodeficiency virus 2
[10] = system: Human immunodeficiency virus 1; experiment: Antiviral activity against HIV1 3b isolate infected in human MT4 cells assessed as blockade of viral spread pretreated for 24 hrs followed by viral infection and subsequently treated with compound every 2 to 3 days post infection by ELISA; type: functional; conditions: Human immunodeficiency virus 1, 3b isolate, read-out: CIC95
HT-29 = experiment: Cytotoxicity against human HT-29 cells incubated for 96 hrs by MTT assay; type: functional, cell-based; conditions: HT-29, 96 h
PC-3 [11] = experiment: Cytotoxicity against human PC-3 cells incubated for 96 hrs by MTT assay; type: functional, cell-based; conditions: PC-3, 96 h
HL-60 [12] = experiment: Cytotoxicity against human HL-60 cells incubated for 96 hrs by MTT assay; type: functional, cell-based; conditions: HL-60, 96 h
[13] = target: T1, Human immunodeficiency virus type 1 protease (Human immunodeficiency virus 1, UniProt Q72874); experiment: Inhibition of HIV1 protease
Cannabinoid receptor 1 = Cannabinoid receptor 1 (Homo sapiens, UniProt P21554); experiment: Displacement of [3H]CP-55940 from human CB1 receptor expressed in HEK cells by competitive binding assay; type: cell-based
Sequence of Cannabinoid receptor 1 (P21554 whole entry): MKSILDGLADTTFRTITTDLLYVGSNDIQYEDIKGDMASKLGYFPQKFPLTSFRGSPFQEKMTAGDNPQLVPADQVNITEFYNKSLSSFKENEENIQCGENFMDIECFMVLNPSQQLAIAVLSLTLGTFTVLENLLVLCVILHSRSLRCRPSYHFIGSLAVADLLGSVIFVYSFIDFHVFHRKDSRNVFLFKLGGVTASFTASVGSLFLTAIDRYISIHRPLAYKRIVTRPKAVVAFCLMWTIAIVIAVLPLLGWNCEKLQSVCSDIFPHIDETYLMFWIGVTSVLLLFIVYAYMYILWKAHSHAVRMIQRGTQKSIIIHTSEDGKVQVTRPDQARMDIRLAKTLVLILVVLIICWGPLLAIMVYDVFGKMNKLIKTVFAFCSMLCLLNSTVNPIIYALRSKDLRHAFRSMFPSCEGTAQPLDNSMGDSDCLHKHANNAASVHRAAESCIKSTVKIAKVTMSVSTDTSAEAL

MDA-MB-231 = experiment: Antiproliferative activity against human MDA-MB-231 cells; type: functional, cell-based
[14] = target: T1, Human immunodeficiency virus type 1 protease; experiment: Inhibition of HIV-1 protease
Interstitial collagenase = Interstitial collagenase (Homo sapiens, UniProt P03956); experiment: Inhibition of PMA-induced human skin fibroblast derived MMP1 by fluorometric assay; type: tissue-based
Sequence of Interstitial collagenase (P03956 whole entry): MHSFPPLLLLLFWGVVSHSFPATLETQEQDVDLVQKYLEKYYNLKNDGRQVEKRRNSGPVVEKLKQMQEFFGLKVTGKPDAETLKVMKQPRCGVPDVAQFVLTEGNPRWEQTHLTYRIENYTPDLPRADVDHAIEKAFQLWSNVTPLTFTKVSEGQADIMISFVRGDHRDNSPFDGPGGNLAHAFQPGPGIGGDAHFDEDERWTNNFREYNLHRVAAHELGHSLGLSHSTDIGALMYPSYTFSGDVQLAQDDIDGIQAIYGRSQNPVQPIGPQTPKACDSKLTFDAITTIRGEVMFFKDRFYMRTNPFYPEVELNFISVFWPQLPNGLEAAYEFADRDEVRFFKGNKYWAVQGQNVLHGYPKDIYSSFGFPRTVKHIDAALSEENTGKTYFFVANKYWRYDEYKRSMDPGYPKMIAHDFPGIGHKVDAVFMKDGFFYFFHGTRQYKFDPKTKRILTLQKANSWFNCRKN

[15] = target: 72 kDa type IV collagenase (Homo sapiens, UniProt P08253); experiment: Inhibition of TNF-induced MMP2 isolated from human HT-1080 cell medium by fluorometric assay; type: tissue-based
Sequence of 72 kDa type IV collagenase (P08253 whole entry): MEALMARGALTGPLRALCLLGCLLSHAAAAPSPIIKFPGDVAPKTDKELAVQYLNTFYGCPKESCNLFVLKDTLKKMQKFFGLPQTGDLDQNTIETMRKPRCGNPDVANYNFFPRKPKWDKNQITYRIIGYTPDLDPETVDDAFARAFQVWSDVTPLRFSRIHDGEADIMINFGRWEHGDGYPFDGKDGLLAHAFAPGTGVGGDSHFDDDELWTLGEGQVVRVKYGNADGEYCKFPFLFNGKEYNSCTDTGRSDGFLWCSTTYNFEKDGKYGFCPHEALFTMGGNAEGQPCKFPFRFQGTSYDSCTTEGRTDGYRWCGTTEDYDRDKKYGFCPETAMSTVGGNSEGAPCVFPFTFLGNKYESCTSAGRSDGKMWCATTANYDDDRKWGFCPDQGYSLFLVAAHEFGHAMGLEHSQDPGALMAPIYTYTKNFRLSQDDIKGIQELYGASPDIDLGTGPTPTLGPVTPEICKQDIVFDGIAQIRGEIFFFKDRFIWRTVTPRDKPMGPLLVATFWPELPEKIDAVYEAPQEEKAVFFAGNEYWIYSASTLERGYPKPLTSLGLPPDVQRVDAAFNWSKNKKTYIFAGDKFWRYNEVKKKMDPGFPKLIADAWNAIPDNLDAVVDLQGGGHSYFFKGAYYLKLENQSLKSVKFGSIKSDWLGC

Stromelysin-1 = Stromelysin-1 (Homo sapiens, UniProt P08254); experiment: Inhibition of human MMP3 by fluorometric assay
Sequence of Stromelysin-1 (P08254 whole entry): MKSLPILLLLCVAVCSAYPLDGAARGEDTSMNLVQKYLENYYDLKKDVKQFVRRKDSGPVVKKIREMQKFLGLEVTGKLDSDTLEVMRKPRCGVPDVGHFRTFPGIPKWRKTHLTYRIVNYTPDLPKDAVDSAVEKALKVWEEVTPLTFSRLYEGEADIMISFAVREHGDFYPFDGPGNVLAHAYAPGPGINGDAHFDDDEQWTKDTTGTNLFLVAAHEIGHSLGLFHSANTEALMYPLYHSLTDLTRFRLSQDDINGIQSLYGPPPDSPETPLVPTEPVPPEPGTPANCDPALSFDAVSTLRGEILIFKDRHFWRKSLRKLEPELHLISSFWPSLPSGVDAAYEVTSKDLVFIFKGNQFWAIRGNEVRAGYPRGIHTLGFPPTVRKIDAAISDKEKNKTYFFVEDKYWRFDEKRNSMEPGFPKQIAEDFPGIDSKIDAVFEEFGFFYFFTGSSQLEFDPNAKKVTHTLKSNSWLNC

Matrilysin = Matrilysin (Homo sapiens, UniProt P09237); experiment: Inhibition of human MMP7 by fluorometric assay
Sequence of Matrilysin (P09237 whole entry): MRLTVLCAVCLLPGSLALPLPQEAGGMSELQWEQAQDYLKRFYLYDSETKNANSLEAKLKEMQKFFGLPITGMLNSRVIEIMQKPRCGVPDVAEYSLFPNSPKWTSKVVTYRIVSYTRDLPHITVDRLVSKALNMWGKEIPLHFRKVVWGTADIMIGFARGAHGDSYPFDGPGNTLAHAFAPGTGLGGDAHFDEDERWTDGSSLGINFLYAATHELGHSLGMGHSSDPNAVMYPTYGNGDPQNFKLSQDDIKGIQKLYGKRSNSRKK

[16] = Half life in monkey at 10 mg/kg, po; type: ADME, organism-based, Macaca mulatta; conditions: rhesus monkey, in vivo
[17] = Oral bioavailability in monkey at 10 mg/kg; type: ADME, organism-based, Macaca mulatta; conditions: rhesus monkey, in vivo
[18] = system: Poly(dA-dT)oligonucleotide; experiment: Binding affinity to poly (dA-dT) (unknown origin) by ethidium displacement assay; type: nucleic-acid assay
[19] = system: Poly(dG-dC)oligonucleotide; experiment: Binding affinity to poly (dG-dC) (unknown origin) by ethidium displacement assay; type: nucleic-acid assay
Integrin alpha-4/beta-1 = Integrin alpha-4/beta-1 (Homo sapiens, UniProt P05556+P13612); experiment: Displacement of 125I-VCAM-Ig from VLA4 in human Jurkat cells incubated for 30 mins by scintillation counting method; type: cell-based
Sequence of Integrin alpha-4/beta-1 (P05556 whole entry): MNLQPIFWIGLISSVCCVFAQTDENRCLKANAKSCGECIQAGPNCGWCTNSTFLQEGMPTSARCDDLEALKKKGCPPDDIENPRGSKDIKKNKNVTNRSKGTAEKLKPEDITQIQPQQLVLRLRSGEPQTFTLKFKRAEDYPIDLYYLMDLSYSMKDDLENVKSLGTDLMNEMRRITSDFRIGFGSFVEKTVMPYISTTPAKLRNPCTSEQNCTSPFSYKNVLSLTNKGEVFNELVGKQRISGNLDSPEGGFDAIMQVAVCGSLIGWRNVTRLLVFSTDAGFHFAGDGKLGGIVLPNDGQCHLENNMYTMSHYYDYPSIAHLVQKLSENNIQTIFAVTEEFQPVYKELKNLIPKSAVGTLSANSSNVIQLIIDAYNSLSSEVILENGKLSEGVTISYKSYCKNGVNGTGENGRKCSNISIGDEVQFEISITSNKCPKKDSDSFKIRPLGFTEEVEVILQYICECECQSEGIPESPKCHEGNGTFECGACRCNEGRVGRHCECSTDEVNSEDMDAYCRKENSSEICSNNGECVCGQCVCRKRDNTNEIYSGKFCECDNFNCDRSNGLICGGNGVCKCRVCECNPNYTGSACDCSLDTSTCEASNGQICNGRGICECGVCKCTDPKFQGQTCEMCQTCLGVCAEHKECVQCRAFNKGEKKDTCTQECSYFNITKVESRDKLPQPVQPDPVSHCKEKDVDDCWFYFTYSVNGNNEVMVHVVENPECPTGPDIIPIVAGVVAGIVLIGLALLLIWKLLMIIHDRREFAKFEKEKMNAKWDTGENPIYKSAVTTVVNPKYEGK
Sequence of Integrin alpha-4/beta-1 (P13612 whole entry): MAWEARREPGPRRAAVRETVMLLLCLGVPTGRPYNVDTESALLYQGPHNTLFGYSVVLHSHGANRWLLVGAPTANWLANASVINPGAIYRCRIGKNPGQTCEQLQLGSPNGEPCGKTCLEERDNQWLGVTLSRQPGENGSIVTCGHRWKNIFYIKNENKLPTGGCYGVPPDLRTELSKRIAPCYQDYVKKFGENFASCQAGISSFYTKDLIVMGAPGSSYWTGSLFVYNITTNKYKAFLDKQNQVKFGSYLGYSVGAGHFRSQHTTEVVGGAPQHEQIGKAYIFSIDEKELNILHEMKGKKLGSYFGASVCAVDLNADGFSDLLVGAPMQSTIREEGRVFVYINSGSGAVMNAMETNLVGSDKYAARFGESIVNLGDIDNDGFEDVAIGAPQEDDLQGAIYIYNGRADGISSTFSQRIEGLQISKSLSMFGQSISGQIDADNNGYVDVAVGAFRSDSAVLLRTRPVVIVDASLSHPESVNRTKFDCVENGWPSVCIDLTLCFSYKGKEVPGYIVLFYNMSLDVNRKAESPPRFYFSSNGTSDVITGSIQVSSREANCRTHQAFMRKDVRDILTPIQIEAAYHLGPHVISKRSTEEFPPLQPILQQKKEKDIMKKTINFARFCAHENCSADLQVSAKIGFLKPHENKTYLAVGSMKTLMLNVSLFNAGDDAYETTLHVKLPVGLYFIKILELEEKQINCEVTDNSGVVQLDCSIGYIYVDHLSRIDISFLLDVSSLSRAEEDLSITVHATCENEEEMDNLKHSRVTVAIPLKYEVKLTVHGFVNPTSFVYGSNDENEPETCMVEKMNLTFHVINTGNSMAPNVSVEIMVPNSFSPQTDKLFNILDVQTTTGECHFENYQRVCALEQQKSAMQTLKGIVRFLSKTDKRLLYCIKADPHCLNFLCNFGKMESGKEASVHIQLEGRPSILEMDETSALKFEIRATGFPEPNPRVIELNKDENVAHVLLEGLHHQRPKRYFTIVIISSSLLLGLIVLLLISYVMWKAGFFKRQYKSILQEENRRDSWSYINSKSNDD

[20] = Selectivity index, ratio of Ki for human CB1 receptor expressed in HEK cells to Ki for human CB2 receptor expressed in HEK cells
Cannabinoid receptor 2 = Cannabinoid receptor 2 (Homo sapiens, UniProt P34972); experiment: Displacement of [3H]CP-55940 from human CB2 receptor expressed in HEK cells by competitive binding assay; type: cell-based

N=C(N)NCCCCCCC(=O)NC(O)C(=O)NCCCCNCCCN (stereo not given)
Survival (Mus musculus [1]): 57 days | Survival (Mus musculus [2]): 38 days | Survival (Rattus norvegicus): 38 days

CC(C)C[C@H](NC(=O)[C@H](Cc1ccccc1)N/C=C/NC(=O)CNC(=O)[C@@H](N)Cc1ccc(O)cc1)C(=O)O
Ki [3]: 0.587 µM

CCCCCCCCCCCCCCCCS(=O)(=O)N[C@@H](CO)[C@H](O)/C=C/c1ccc(Cl)cc1
IC50 (CAKI-2): 103 µM | IC50 (A549): 96 µM | IC50 (HeLa): 65 µM | IC50 (PC-3 [4]): 123 µM | IC50 (HL-60 [5]): 28 µM

CC(C)c1cccc(C(C)C)c1NC(=O)NCCCCCc1ccccc1
IC50 [6]: 0.017 µM

NC(=O)[C@H]1CS[C@@H]2C[C@@H](N3CC(=O)N4CCC[C@H]4C3=O)C(=O)N12
KiH [7]: 0.098 nM | KiL [7]: 171 nM | KiH [8]: 0.14 nM | KiL [8]: 183 nM

CC(C)(C)NC(=O)[C@@H]1C[C@@H]2CCCC[C@@H]2CN1C[C@@H](O)[C@H](Cc1ccccc1)NC(=O)[C@H](CC(N)=O)NC(=O)c1ccc2ccccc2n1
IC50 [9]: 0.0005 µM | IC95 [10]: 0.022 µM

CCCCCCCCCCCCNC(=O)N[C@@H](CO)[C@H](O)c1ccc([N+](=O)[O-])cc1
IC50 (CAKI-2): 80 µM | IC50 (HT-29): 55 µM | IC50 (A549): 60 µM | IC50 (PC-3 [11]): 36 µM | IC50 (HL-60 [12]): 30 µM

O=C(N[C@@H](Cc1ccccc1)[C@@H](O)C[C@@H](Cc1ccccc1)C(=O)N[C@H]1c2ccccc2C[C@H]1O)O[C@H]1CCOC1
IC95 [10]: 0.003 µM | IC50 [13]: < 0.03 nM

CCCCCn1cc(-c2cn(C34CC5CC(CC(C5)C3)C4)nn2)c(=O)c2cc(-c3ccco3)ccc21
Ki (Cannabinoid receptor 1): > 10 µM

O=S(=O)(NCc1ccc2c(c1)OCO2)c1ccccc1
IC50 (MDA-MB-231): 14.2 µM

CCCCCCCCCCCCCC(=O)N[C@@H](CO)[C@H](O)c1ccc([N+](=O)[O-])cc1
IC50 (CAKI-2): 107 µM | IC50 (HT-29): 96 µM | IC50 (A549): 64 µM | IC50 (PC-3 [11]): 83 µM | IC50 (HL-60 [12]): 28 µM | IC50 (HeLa): 78 µM | IC50 (PC-3 [4]): 123 µM | IC50 (HL-60 [5]): 48 µM

CC(C)(C)NS(=O)(=O)CC[C@@H]1O[C@@H]1[C@H](Cc1ccccc1)NOC(=O)CCC(=O)NC(=O)c1ccc2ccccc2n1
IC50 [14]: 0.03 µM

C=CC[C@H](C(=O)NO)[C@@H](CC(C)C)C(=O)N[C@H](C(=O)NC)C(C)(C)C
IC50 (Interstitial collagenase): 0.0011 µM | IC50 [15]: 0.00085 µM | IC50 (Stromelysin-1): 0.01 µM | IC50 (Matrilysin): 0.011 µM | half-life [16]: 27 h | bioavailability [17]: 15%

CCCCCCCCCCCCCCCCCNC(=O)Nc1c(OC)cc(OC)cc1OC
IC50 [6]: 0.32 µM

CC(C)(C)NS(=O)(=O)CC[C@@H]1O[C@@H]1[C@H](Cc1ccccc1)NC(=O)[C@@H](NC(=O)OCc1ccccc1)C(C)(C)S(C)(=O)=O
IC50 [14]: 0.0202 µM

COc1ccc(C(=O)NCc2ccc3c(c2)OCO3)cc1
IC50 (MDA-MB-231): ≥ 200 µM

Cn1cc(NC(=O)c2cc(NC(=O)c3cc(NC=O)cn3C)cn2C)cc1C(=O)NCCC(=N)N
Kapp [18]: 345 10^5/M | Kapp [19]: 1.3 10^5/M

CC(C)(C)NC(=O)[C@@H]1C[C@@H]2CCCC[C@@H]2CN1C[C@@H](O)[C@H](Cc1ccccc1)NC(=O)OC(C)(C)C
IC50 [13]: ≥ 3000 nM

CN(C)CCCNC(=O)c1cc(NC(=O)c2cc(NC(=O)c3cc(NC=O)cn3C)cn2C)cn1C
Kapp [18]: 150 10^5/M | Kapp [19]: 0.9 10^5/M

NCCCNCCCCNC(=O)CC(=O)NCCCCCCN=C(N)N
Survival (Mus musculus [1]): 52 days | Survival (Mus musculus [2]): 53 days | Survival (Rattus norvegicus): 9 days

COc1cccc(OC)c1-c1ccc(C[C@H](N=C(N)[C@@H]2CCN2S(=O)(=O)c2ccccc2)C(=O)O)cc1
IC50 (Integrin alpha-4/beta-1): 0.0001 µM

CCCCCn1cc(-c2nc(C34CC5CC(CC(C5)C3)C4)no2)c(=O)c2cc(-c3ccco3)ccc21
Ratio Ki [20]: >82 | Ki (Cannabinoid receptor 1): 0.033 µM | Ki (Cannabinoid receptor 2): 0.0004 µM
